The values that follow come from US8338436B2, “Amorphous form of N-{2-fluoro-5-[3-(thiophene-2-carbonyl)-pyrazolo[1,5-a]pyrimidin-7-yl]-phenyl}-N-methyl-acetamide” (Ferrer International, S.A., priority 2006, dated 2012).

Data set [1] deals with GABAA (γ-aminobutyric acidA) receptors. The data set can be described thus: GABAA receptor ligand activity. To be noted: amorphous form, stated to be like crystalline compound (I). In kind it is binding.
A short description of data set [2]: Solubility of solid forms of compound (I).
For data set [3], the system named is GABAA (γ-aminobutyric acidA) receptors. The following applies: as described in PCT/EP2006/063243 and U.S. 60/692866; cited from earlier work.

As for `CC(=O)N(C)c1cc(-c2ccnc3c(C(=O)c4cccs4)cnn23)ccc1F` [amorphous form, N-{2-Fluoro-5-[3-(thiophene-2-carbonyl)-pyrazolo[1,5-a]pyrimidin-7-yl]-phenyl}-N-methyl-acetamide], the “ligand of GABAA” value in data set [1] is “potent ligand”. In addition, the “solubility of the amorphous form relative to crystalline product” value in data set [2] (amorphous versus crystalline product) is recorded as “about twice as high”. On to `CC(=O)N(C)c1cc(-c2ccnc3c(C(=O)c4cccs4)cnn23)ccc1F` [crystalline form of compound (I), N-{2-Fluoro-5-[3-(thiophene-2-carbonyl)-pyrazolo[1,5-a]pyrimidin-7-yl]-phenyl}-N-methyl-acetamide], for which the solubility entry in data set [2] (crystalline form, qualitative statement) is reported as “very low soluble”. With `CC(=O)N(C)c1cc(-c2ccnc3c(C(=O)c4cccs4)cnn23)ccc1F` [compound (I), N-{2-Fluoro-5-[3-(thiophene-2-carbonyl)-pyrazolo[1,5-a]pyrimidin-7-yl]-phenyl}-N-methyl-acetamide], the “ligand of GABAA receptors” value in data set [3] is “potent ligand”.
